Results as given in article PMC6777341 (ACS chemical neuroscience, 2017).
Marks after values point to notes of the source that are not given here.

What was measured:
[1] = molecular target: human NPFF1 receptor (Homo sapiens, UniProt Q9GZQ6); experiment: NPFF1 calcium mobilization assay; format: cell-based; settings: for NPFF1 antagonist activity (in words) / NPFF1 Ke: calcium mobilization assay; for Ca^2+ NPFF1 Ke: Table 1
[2] = molecular target: human NPFF2 receptor (Homo sapiens, UniProt Q9Y5X5); experiment: NPFF2 calcium mobilization assay; format: cell-based; settings: for NPFF2 antagonist activity (in words): calcium mobilization assay; for Ca^2+ NPFF2 Ke: Table 1
[3] = molecular target: human NPFFR1 (Homo sapiens, UniProt Q9GZQ6); experiment: Lance cAMP assay, NPFFR1-CHO cells; format: cell-based
[4] = molecular target: human NPFFR2 (Homo sapiens, UniProt Q9Y5X5); experiment: Lance cAMP assay, NPFFR2-CHO cells; format: cell-based
[5] = test system: NPFF receptors; experiment: Curve-shift assays, type of antagonism; format: cell-based, human; settings: standard incubation; typical competitive profile with longer incubations
[6] = apparent Ke from right shift of NPFF curve, 15 min pretreatment
[7] = footnote c: pre-incubation 45 min or 1 hr

Sequence of human NPFF1 receptor (Q9GZQ6 whole entry): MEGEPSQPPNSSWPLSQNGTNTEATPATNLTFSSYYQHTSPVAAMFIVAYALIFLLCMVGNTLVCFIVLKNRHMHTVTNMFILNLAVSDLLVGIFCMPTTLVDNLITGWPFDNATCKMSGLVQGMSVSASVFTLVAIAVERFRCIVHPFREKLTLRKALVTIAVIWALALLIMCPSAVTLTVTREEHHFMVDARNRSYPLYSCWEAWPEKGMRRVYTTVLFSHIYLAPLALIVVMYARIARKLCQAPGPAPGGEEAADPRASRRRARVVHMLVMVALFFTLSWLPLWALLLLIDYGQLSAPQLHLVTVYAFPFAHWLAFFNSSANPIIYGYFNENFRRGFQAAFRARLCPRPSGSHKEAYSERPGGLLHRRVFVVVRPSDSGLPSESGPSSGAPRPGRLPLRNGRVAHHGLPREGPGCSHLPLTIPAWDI
Sequence of human NPFFR1 (Q9GZQ6 whole entry): as above
Sequence of human NPFFR2 (Q9Y5X5 whole entry): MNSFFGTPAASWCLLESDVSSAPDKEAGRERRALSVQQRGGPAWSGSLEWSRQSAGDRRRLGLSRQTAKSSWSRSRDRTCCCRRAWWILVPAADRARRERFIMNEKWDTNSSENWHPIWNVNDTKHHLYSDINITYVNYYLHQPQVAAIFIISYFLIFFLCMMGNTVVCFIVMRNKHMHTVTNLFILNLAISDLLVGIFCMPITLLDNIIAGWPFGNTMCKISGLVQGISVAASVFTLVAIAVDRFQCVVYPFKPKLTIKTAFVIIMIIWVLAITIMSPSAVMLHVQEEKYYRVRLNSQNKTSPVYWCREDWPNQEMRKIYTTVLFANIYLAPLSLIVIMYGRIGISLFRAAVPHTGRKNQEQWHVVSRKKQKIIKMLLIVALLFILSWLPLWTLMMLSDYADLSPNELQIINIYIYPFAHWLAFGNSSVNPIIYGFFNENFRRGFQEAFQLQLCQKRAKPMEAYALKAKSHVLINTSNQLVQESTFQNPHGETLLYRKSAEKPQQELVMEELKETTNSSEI
Sequence of human NPFF2 receptor (Q9Y5X5 whole entry): as above

CNC(=O)[C@@H]1C[C@H](NCc2ccc(OC)cc2)CN1Cc1ccccc1Cl [Compound 10, (2S,4S)-1-[(2-Chlorophenyl)methyl]-4-{[(4-methoxyphenyl)methyl]amino}-N-methylpyrrolidine-2-carboxamide]
NPFF1 antagonist activity (in words) [1]: inactive | NPFF2 antagonist activity (in words) [2]: inactive

CCNC(=O)[C@@H]1C[C@H](NCc2ccc(OC)cc2)CN1Cc1ccccc1Cl [Compound 11, (2S,4S)-1-[(2-Chlorophenyl)methyl]-N-ethyl-4-{[(4-methoxyphenyl)methyl]amino} pyrrolidine-2-carboxamide]
Ca^2+ NPFF1 Ke [1, 6]: >10^b μM | NPFF1 Ke [1]: > 10 µM | NPFF1 antagonist activity (in words) [1]: inactive | Ca^2+ NPFF2 Ke [2, 6]: >10^b μM | NPFF2 antagonist activity (in words) [2]: inactive

CCCCNC(=O)[C@@H]1C[C@H](NCc2ccc(OC)cc2)CN1Cc1ccccc1Cl [Compound 13, (2S,4S)-N-Butyl-1-[(2-chlorophenyl)methyl]-4-{[(4-methoxyphenyl)methyl]amino} pyrrolidine-2-carboxamide]
Ca^2+ NPFF1 Ke [1, 6]: 1.24 ± 0.14 µM

CCC(C)NC(=O)[C@@H]1C[C@H](NCc2ccc(OC)cc2)CN1Cc1ccccc1Cl (stereo partly drawn) [Compound 14, (2S,4S)-N-(Butan-2-yl)-1-[(2-chlorophenyl)methyl]-4-{[(4-methoxyphenyl)methyl]amino} pyrrolidine-2-carboxamide]
Ca^2+ NPFF1 Ke [1, 6]: 1.50 ± 0.06 µM | Ca^2+ NPFF2 Ke [2, 6]: 3.68 ± 0.35^b μM

COc1ccc(CN[C@H]2C[C@@H](C(=O)NC(C)(C)C)N(Cc3ccccc3Cl)C2)cc1 [Compound 15, (2S,4S)-N-tert-Butyl-1-[(2-chlorophenyl)methyl]-4-{[(4-methoxyphenyl)methyl]amino} pyrrolidine-2-carboxamide]
Ca^2+ NPFF1 Ke [1, 6]: 1.88 ± 0.21 µM | Ca^2+ NPFF2 Ke [2, 7]: 1.26 ± 0.8^c μM

CCCCCCNC(=O)[C@@H]1C[C@H](NCc2ccc(OC)cc2)CN1Cc1ccccc1Cl [Compound 18, (2S,4S)-1-[(2-Chlorophenyl)methyl]-4-{[(4-methoxyphenyl)methyl]amino}-N-hexylpyrrolidine-2-carboxamide]
Kb [3]: 1980 ± 280 nM | Kb [4]: 2480 ± 270 nM

CCCCCCCCCCNC(=O)[C@@H]1C[C@H](NCc2ccc(OC)cc2)CN1Cc1ccccc1Cl [Compound 19, (2S,4S)-1-[(2-Chlorophenyl)methyl]-N-decyl-4-{[(4-methoxyphenyl)methyl]amino} pyrrolidine-2-carboxamide]
Ca^2+ NPFF1 Ke [1, 7]: >10^b,c μM | NPFF1 antagonist activity (in words) [1]: completely abolished

CCN(CC)C(=O)[C@@H]1C[C@H](NCc2ccc(OC)cc2)CN1Cc1ccccc1Cl [Compound 22, (2S,4S)-1-[(2-Chlorophenyl)methyl]-N,N-diethyl-4-{[(4-methoxyphenyl)methyl]amino} pyrrolidine-2-carboxamide]
Ca^2+ NPFF1 Ke [1, 6]: >10^b μM | NPFF1 antagonist activity (in words) [1]: inactive | NPFF2 antagonist activity (in words) [2]: inactive

COc1ccc(CN[C@H]2C[C@@H](C(=O)NCc3ccccc3)N(Cc3ccccc3Cl)C2)cc1 [Compound 23, (2S,4S)-N-Benzyl-1-[(2-chlorophenyl)methyl]-4-{[(4-methoxyphenyl)methyl]amino} pyrrolidine-2-carboxamide]
type of antagonism in curve-shift assays [5]: insurmountable antagonism | Ca^2+ NPFF1 Ke [1, 7]: 0.78 ± 0.08^c μM | NPFF1 Ke [1]: 0.78 µM | cAMP NPFF1 Ke ([3]; Table 1): 1.72 ± 0.32 µM | cAMP NPFF2 Ke ([4]; Table 1): 3.90 ± 1.1 µM | Ca^2+ NPFF2 Ke [2, 7]: 2.01 ± 0.44^c μM

COc1ccc(CN[C@H]2C[C@@H](C(=O)NCCc3ccccc3)N(Cc3ccccc3Cl)C2)cc1 [Compound 24, (2S,4S)-1-[(2-Chlorophenyl)methyl]-4-{[(4-methoxyphenyl)methyl]amino}-N-(2-phenylethyl)pyrrolidine-2-carboxamide]
Kb [2]: 2340 ± 310 nM

COc1ccc(CN[C@H]2C[C@@H](C(=O)NCCCc3ccccc3)N(Cc3ccccc3Cl)C2)cc1 [Compound 25, (2S,4S)-1-[(2-Chlorophenyl)methyl]-4-{[(4-methoxyphenyl)methyl]amino}-N-(3-phenylpropyl)pyrrolidine-2-carboxamide]
IC50 [1]: > 10000 nM | NPFF1 antagonist activity (in words) [1]: completely abolished the activity

COc1ccc(CN[C@H]2C[C@@H](C(=O)NCCc3ccc(OC)c(OC)c3)N(Cc3ccccc3Cl)C2)cc1 [Compound 27, (2S,4S)-1-[(2-Chlorophenyl)methyl]-N-[2-(3,4-dimethoxyphenyl)ethyl]-4-{[(4-methoxyphenyl)methyl]amino}pyrrolidine-2-carboxamide]
Kb [3]: 1520 ± 110 nM | Kb [4]: > 10000 nM

COc1ccc(CN[C@H]2C[C@@H](C(=O)NCCc3ccc(N(C)C)cc3)N(Cc3ccccc3Cl)C2)cc1 [Compound 28, (2S,4S)-1-[(2-Chlorophenyl)methyl]-N-{2-[4-(dimethylamino)phenyl]ethyl}-4-{[(4-methoxyphenyl)methyl]amino}pyrrolidine-2-carboxamide]
Kb [2]: 2080 ± 380 nM

COc1ccc(CN[C@H]2C[C@@H](C(=O)NCCc3ccc(C(C)(C)C)cc3)N(Cc3ccccc3Cl)C2)cc1 [Compound 31, (2S,4S)-N-[2-(4-tert-Butylphenyl)ethyl]-1-[(2-chlorophenyl)methyl]-4-{[(4-methoxyphenyl)methyl]amino}pyrrolidine-2-carboxamide]
Kb [2]: 2420 ± 260 nM

COc1ccc(CN[C@H]2C[C@@H](C(=O)NCCc3ccc(Cl)cc3)N(Cc3ccccc3Cl)C2)cc1 [Compound 32, (2S,4S)-N-[2-(4-Chlorophenyl)ethyl]-1-[(2-chlorophenyl)methyl]-4-{[(4-methoxyphenyl)methyl]amino}pyrrolidine-2-carboxamide]
type of antagonism in curve-shift assays [5]: insurmountable antagonism | Kb [1]: 990 ± 220 nM | Kb [3]: 1490 ± 100 nM | Kb [4]: 2530 ± 360 nM | Kb [2]: 1830 ± 90 nM

COc1ccc(CN[C@H]2C[C@@H](C(=O)NCCc3ccc(F)c(F)c3)N(Cc3ccccc3Cl)C2)cc1 [Compound 34, (2S,4S)-1-[(2-Chlorophenyl)methyl]-N-[2-(3,4-difluorophenyl)ethyl]-4-{[(4-methoxyphenyl)methyl]amino}pyrrolidine-2-carboxamide]
Kb [2]: 3490 ± 1400 nM

COc1ccc(CN[C@H]2C[C@@H](C(=O)NCCc3ccc(F)cc3)N(Cc3ccccc3Cl)C2)cc1 [Compound 35, (2S,4S)-1-[(2-Chlorophenyl)methyl]-N-[2-(4-fluorophenyl)ethyl]-4-{[(4-methoxyphenyl)methyl]amino}pyrrolidine-2-carboxamide]
Kb [3]: 1410 ± 180 nM | Kb [4]: > 10000 nM

CCN(CC)C(=O)[C@@H]1C[C@H](NCc2ccc(OC)cc2)CN1Cc1ccccc1Cl [Compound 40, (2S,4S)-1-[(2-Chlorophenyl)methyl]-N,N-diethyl-4-{[(4-methoxyphenyl)methyl]amino} pyrrolidine-2-carboxamide]
Ca^2+ NPFF1 Ke [1, 6]: 2.90 ± 0.15 µM | NPFF1 Ke [1]: 2.90 µM | Ca^2+ NPFF2 Ke [2, 6]: 4.93 ± 0.02^b μM

CCCN(CCC)C(=O)[C@@H]1C[C@H](NCc2ccc(OC)cc2)CN1Cc1ccccc1Cl [Compound 41, (2S,4S)-1-[(2-Chlorophenyl)methyl]-4-{[(4-methoxyphenyl)methyl]amino}-N,N-dipropylpyrrolidine-2-carboxamide]
type of antagonism in curve-shift assays [5]: insurmountable antagonism | Kb [3]: 2310 ± 420 nM | Kb [4]: > 10000 nM

COc1ccc(CN[C@H]2C[C@@H](C(=O)N3CCN(c4ccccc4)CC3)N(Cc3ccccc3Cl)C2)cc1 [Compound 42, (3S,5S)-1-[(2-Chlorophenyl)methyl]-N-[(4-methoxyphenyl)methyl]-5-(4-phenylpiperazine-1-carbonyl)pyrrolidin-3-amine]
type of antagonism in curve-shift assays [5]: insurmountable antagonism

CCCCCNC(=O)[C@@H]1C[C@H](NCc2ccc(SC)cc2)CN1Cc1ccccc1Cl [Compound 43, (2S,4S)-1-[(2-Chlorophenyl)methyl]-4-{[(4-(methylthio)phenyl)methyl]amino}-N-pentylpyrrolidine-2-carboxamide]
Kb [3]: 1070 ± 200 nM | Kb [4]: 2740 ± 210 nM

CSc1ccc(CN[C@H]2C[C@@H](C(=O)NCCc3ccccc3)N(Cc3ccccc3Cl)C2)cc1 [Compound 44, (2S,4S)-1-[(2-Chlorophenyl)methyl]-4-{[(4-(methylthio)phenyl)methyl]amino}-N-(2-phenylethyl)pyrrolidine-2-carboxamide]
Kb [3]: 1300 ± 140 nM | Kb [4]: > 10000 nM

CSc1ccc(CN[C@H]2C[C@@H](C(=O)NCCc3ccc(F)c(F)c3)N(Cc3ccccc3Cl)C2)cc1 [Compound 47, (2S,4S)-1-[(2-Chlorophenyl)methyl]-N-[2-(3,4-difluorophenyl)ethyl]-4-{[(4-(methylthio)phenyl)methyl]amino}pyrrolidine-2-carboxamide]
Kb [3]: 1070 ± 270 nM | Kb [4]: > 10000 nM
